Values joined by “and” are separate entries in the source; they are usually repeats but may differ in a detail not shown here. Identical values can stand only once. Marks after values point to notes of the source that are not given here.
Assays:
[1] = test system: Salmonella typhimurium TA102; conditions: positive control, 20 μg per plate, +S9
[2] = test system: Salmonella typhimurium TA98; assay: Ames test; conditions: positive control, 50 μg per plate, −S9
[3] = test system: Salmonella typhimurium TA97a; assay: Ames test; conditions: positive control, 50 μg per plate, −S9
[4] = test system: Salmonella typhimurium TA100; assay: Ames test; conditions: positive control, 1 μg per plate, −S9
[5] = test system: Salmonella typhimurium TA1535; assay: Ames test; conditions: positive control, 1 μg per plate, −S9

Nc1ccc2cc3ccccc3cc2c1 [2-Aminoanthracene, 2-aminoanthracene]
Number of revertants TA102 [1]: 2121 ± 21 ^e

CN(C)c1ccc(N=NS(=O)(=O)[O-])cc1.[Na+] [Dioxone, dioxone]
Number of revertants TA98 [2]: 1111 ± 117 ^a
Number of revertants TA97a [3]: 1872 ± 104 ^a

[N-]=[N+]=[N-].[Na+] [Sodium azide, sodium azide]
Number of revertants TA100 [4]: 1697 ± 54 ^c
Number of revertants TA1535 [5]: 1190 ± 40 ^c and 1333 ± 53 ^c
